Reference: US20250073248A1, “BIORESORBABLE CATIONIC STEROIDAL ANTIMICROBIAL COMPOUNDS WITH GLYCERIDE LINKAGES” (BRIGHAM YOUNG UNIVERSITY, priority 2023, published 2025)
Converted amounts (≈) assume the structure as drawn.

Assays:
MRSA ATCC BAA-42 = experiment: Membrane depolarization, DiSC2(5) fluorescence; format: cell-based, Staphylococcus aureus; conditions: 8 μg/mL, FIG. 5
Experimental: Reference is made to FIGS. 4 and 5. […] CSA-131 or CSA-4110 was added at 140 second to achieve 8 μg/mL after addition.
Antimicrobial peptides (AMPs) and CSA compounds are known to permeabilize bacterial membranes. For bacterial survival, the cytoplasmic membrane must be polarized. Depolarization of this membrane prevents ATP synthesis and leads to cell death. The dye 3,3′-diethylthiadicarbocyanine iodide (DiSC2(5)) can be used to measure cell membrane polarization. Fluorescence of this dye is decreased when it inserts into polarized membranes, and membrane depolarization results in substantial increases in fluorescence (see FIG. 5).
MRSA was used to explore the impact of CSA-4110 on membrane depolarization and compared results to those with ceragenin CSA-131. […] Fluorescence was monitored over time after addition of CSA-4110 or CSA-131. which incorporated into cellular membranes.

[1] = tested on: strains of Staphylococcus aureus, Pseudomonas aeruginosa, and Candida albicans; conditions: previous work; strains of S. aureus, P. aeruginosa, C. albicans; cited from earlier work
[2] = tested on: methicillin-resistant Staphylococcus aureus (MRSA); experiment: MIC and MBC, broth microdilution, MRSA (Table 1); format: cell-based; conditions: for MBC / MIC: Staphylococcus aureus; for MIC: first value of cell
Description: (§1) To investigate the antimicrobial impact of structural variance in the novel bioresorbable CSA compounds disclosed herein,Pseudomonas aeruginosa 01 (PA01), methicillin-resistant Staphylococcus aureus (MRSA), and Candida albicans (CA) were selected, representing Gram-negative bacterial, Gram-positive bacterial, and fungal pathogens of high or critical priority on the world health organization's priority lists for bacteria and fungi. Earlier applications of CSA compounds have focused on preventing medical device infections, and all three strains are commonly found in colonized implants, making efficacy against these pathogens an important indicator of future applicability.
(§2) All compounds were screened against these pathogens to determine their minimum inhibitory concentration (MIC), minimum bactericidal concentration (MBC), and minimum fungicidal concentration (MFC) using a broth microdilution method. […] Of these three, only CSA-4110 was similarly active against PA01and CA, inhibiting growth at 8 μg/mL.

[3] = tested on: Pseudomonas aeruginosa 01 (PA01); experiment: MIC and MBC, broth microdilution, PA01 (Table 1); format: cell-based; conditions: for MBC / MIC: Pseudomonas aeruginosa; for MBC / MBC or MFC: value in parentheses; for MIC: first value of cell
Description: as §1, §2

Candida albicans (CA) = experiment: MIC and MFC, broth microdilution, CA (Table 1); format: cell-based; conditions: for MBC / MIC: Candida albicans; for MBC / MBC or MFC: MFC, value in parentheses; for MIC: first value of cell
Description: as §1, §2

[4] = tested on: methicillin-resistant Staphylococcus aureus (MRSA); experiment: Example 1 MIC/MBC (FIG. 1, FIG. 2), MRSA; format: cell-based
Experimental: (§3) The antimicrobial activities of CSA-4108, CSA-4110, CSA-4112, and CSA-4114 were determined relative to methicillin-resistant Staphylococcus aureus (MRSA), Pseudomonas aeruginosa (Pa), and Candida albicans 90028. The minimum inhibitory concentration (MIC) for CSA-4108, CSA-4110, CSA-4112, and CSA-4114 relative to the foregoing microbes is graphically reported in FIG. 1. The minimum bactericidal concentration (MBC) and minimum fungicidal concentration […] for CSA-4108, CSA-4110, CSA-4112, and CSA-4114 relative to the foregoing microbes are graphically reported in FIG. 2.

Candida albicans 90028 = experiment: Example 1 MIC/MFC (FIG. 1, FIG. 2), C. albicans; format: cell-based
Experimental: as §3

PA01, MRSA and CA = experiment: MIC, MBC and MFC screen, all three pathogens (summary statements); format: cell-based; conditions: compared with CSA-4110
Description: as §1, §2

[5] = MBC, value in parentheses, kills at least 99.9%

## CCCCCCCCCCCCNCCC[C@@H](C)[C@H]1CC[C@H]2[C@@H]3[C@H](OCCCN)C[C@@H]4C[C@H](OCCCN)CC[C@]4(C)[C@H]3C[C@H](OCCCN)[C@]12C.Cl.Cl.Cl.Cl [CSA-131]
MRSA ATCC BAA-42
  speed of depolarization of MRSA cells, comparison: more rapidly than CSA-4110
MRSA ATCC BAA-42; added at 140 seconds
  fluorescence of DiSC2(5) after addition (membrane depolarization): rapid increase of fluorescence
[1]
  MICs: 0.5 to 2 µg/mL

## CCCCCCCCCCCCCC(=O)OCC(O)COC(=O)CC[C@@H](C)[C@H]1CC[C@H]2[C@@H]3[C@H](OC(=O)CCN)C[C@@H]4C[C@H](OC(=O)CCN)CC[C@]4(C)[C@H]3C[C@H](OC(=O)CCN)[C@]12C (stereo partly shown) [CSA-4114]
[2]; [5]
  MBC: > 100 µg/mL
[2]
  MIC: 64 µg/mL (≈ 70.6 µM)
[3]
  MBC: > 100 µg/mL
  MIC: > 100 µg/mL
Candida albicans (CA)
  MBC: 64 µg/mL (≈ 70.6 µM)
  MIC: 64 µg/mL (≈ 70.6 µM)
[4]
  MIC (FIG. 1), ranking in words: highest MIC
Candida albicans 90028
  MFC (FIG. 2), ranking in words: highest MFC
  MIC (FIG. 1), ranking in words: highest MIC

## CCCCCCCC(=O)OCC(O)COC(=O)CC[C@@H](C)[C@H]1CC[C@H]2[C@@H]3[C@H](OC(=O)CCN)C[C@@H]4C[C@H](OC(=O)CCN)CC[C@]4(C)[C@H]3C[C@H](OC(=O)CCN)[C@]12C (stereo partly shown) [CSA-4108]
[2]; [5]
  MBC: 32 µg/mL (≈ 38.9 µM)
[2]
  MIC: 16 µg/mL (≈ 19.5 µM)
[3]
  MBC: > 100 µg/mL
  MIC: 64 µg/mL (≈ 77.8 µM)
Candida albicans (CA)
  MBC: 16 µg/mL (≈ 19.5 µM)
  MIC: 16 µg/mL (≈ 19.5 µM)
  MBC or MFC: 16 (16) μg/mL
Candida albicans 90028
  MIC (FIG. 1), ranking in words: same MIC

## CCCCCCCCCC(=O)OCC(COC(=O)CC[C@@H](C)[C@H]1CC[C@H]2[C@@H]3[C@H](OC(=O)CCN)C[C@@H]4C[C@H](OC(=O)CCN)CC[C@]4(C)[C@H]3C[C@H](OC(=O)CCN)[C@]12C)OC(=O)CCCCCCCCC (stereo partly shown) [CSA-4210]
[2]; [5]
  MBC: > 100 µg/mL
[2]
  MIC: > 100 µg/mL
[3]
  MBC: > 100 µg/mL
  MIC: > 100 µg/mL
Candida albicans (CA)
  MBC: > 100 µg/mL
  MIC: > 100 µg/mL

## CCCCCCCCCC(=O)OC[C@@H](O)COC(=O)CC[C@@H](C)[C@H]1CC[C@H]2[C@@H]3[C@H](OC(=O)CCN)C[C@@H]4C[C@H](OC(=O)CCN)CC[C@]4(C)[C@H]3C[C@H](OC(=O)CCN)[C@]12C [CSA-4110R]
[2]; [5]
  MBC: 4 µg/mL (≈ 4.71 µM)
[2]
  MIC: 4 µg/mL (≈ 4.71 µM)
[3]
  MBC: 8 µg/mL (≈ 9.41 µM)
  MIC: 4 µg/mL (≈ 4.71 µM)
Candida albicans (CA)
  MBC: 8 µg/mL (≈ 9.41 µM)
  MIC: 8 µg/mL (≈ 9.41 µM)
PA01, MRSA and CA
  antimicrobial activity in MIC and MBC/MFC assays, in words: performed comparably to CSA-4110

## CCCCCCCCCC(=O)OC[C@H](O)COC(=O)CC[C@@H](C)[C@H]1CC[C@H]2[C@@H]3[C@H](OC(=O)CCN)C[C@@H]4C[C@H](OC(=O)CCN)CC[C@]4(C)[C@H]3C[C@H](OC(=O)CCN)[C@]12C [CSA-4110S]
[2]; [5]
  MBC: 4 µg/mL (≈ 4.71 µM)
[2]
  MIC: 4 µg/mL (≈ 4.71 µM)
[3]
  MBC: 16 µg/mL (≈ 18.8 µM)
  MIC: 8 µg/mL (≈ 9.41 µM)
Candida albicans (CA)
  MBC: 8 µg/mL (≈ 9.41 µM)
  MIC: 8 µg/mL (≈ 9.41 µM)
PA01, MRSA and CA
  antimicrobial activity in MIC and MBC/MFC assays, in words: performed comparably to CSA-4110

## CCCC(=O)OCC(COC(=O)CC[C@@H](C)[C@H]1CC[C@H]2[C@@H]3[C@H](OC(=O)CCN)C[C@@H]4C[C@H](OC(=O)CCN)CC[C@]4(C)[C@H]3C[C@H](OC(=O)CCN)[C@]12C)OC(=O)CCC (stereo partly shown) [CSA-4204]
[2]; [5]
  MBC: 8 µg/mL (≈ 9.57 µM)
[2]
  MIC: ≤ 8 µg/mL
[3]
  MBC or MFC: > 100 µg/mL
  MBC: 100 µg/mL (≈ 120 µM)
  MIC: 64 µg/mL (≈ 76.5 µM)
Candida albicans (CA)
  MBC: 32 µg/mL (≈ 38.3 µM)
  MIC: 16 µg/mL (≈ 19.1 µM)

## CCCCCCCCCCCC(=O)OCC(O)COC(=O)CC[C@@H](C)[C@H]1CC[C@H]2[C@@H]3[C@H](OC(=O)CCN)C[C@@H]4C[C@H](OC(=O)CCN)CC[C@]4(C)[C@H]3C[C@H](OC(=O)CCN)[C@]12C (stereo partly shown) [CSA-4112]
[2]; [5]
  MBC: 32 µg/mL (≈ 36.4 µM)
[2]
  MIC: 16 µg/mL (≈ 18.2 µM)
[3]
  MBC: 64 µg/mL (≈ 72.9 µM)
  MIC: 64 µg/mL (≈ 72.9 µM)
Candida albicans (CA)
  MBC: 16 µg/mL (≈ 18.2 µM)
  MIC: 16 µg/mL (≈ 18.2 µM)
  MBC or MFC: 16 (16) μg/mL
Candida albicans 90028
  MIC (FIG. 1), ranking in words: same MIC

## CCCCCC(=O)OCC(COC(=O)CC[C@@H](C)[C@H]1CC[C@H]2[C@@H]3[C@H](OC(=O)CCN)C[C@@H]4C[C@H](OC(=O)CCN)CC[C@]4(C)[C@H]3C[C@H](OC(=O)CCN)[C@]12C)OC(=O)CCCCC (stereo partly shown) [CSA-4206]
[2]; [5]
  MBC or MFC: 8 (8) μg/mL
  MBC: 8 µg/mL (≈ 8.97 µM)
[2]
  MIC: ≤ 8 µg/mL
[3]
  MBC or MFC: 32 (32) μg/mL
  MBC: 32 µg/mL (≈ 35.9 µM)
  MIC: 32 µg/mL (≈ 35.9 µM)
Candida albicans (CA)
  MBC: 8 µg/mL (≈ 8.97 µM)
  MIC: 8 µg/mL (≈ 8.97 µM)
  MBC or MFC: 8 (8) μg/mL

## CCCCCCCC(=O)OCC(COC(=O)CC[C@@H](C)[C@H]1CC[C@H]2[C@@H]3[C@H](OC(=O)CCN)C[C@@H]4C[C@H](OC(=O)CCN)CC[C@]4(C)[C@H]3C[C@H](OC(=O)CCN)[C@]12C)OC(=O)CCCCCCC (stereo partly shown) [CSA-4208]
[2]; [5]
  MBC: 64 µg/mL (≈ 67.5 µM)
[2]
  MIC: 32 µg/mL (≈ 33.7 µM)
[3]
  MBC: > 100 µg/mL
  MIC: 64 µg/mL (≈ 67.5 µM)
Candida albicans (CA)
  MBC: 64 µg/mL (≈ 67.5 µM)
  MIC: 64 µg/mL (≈ 67.5 µM)
